# Laboratory results published in patent publication US9783572B2, “Synthesis of syrbactin proteasome inhibitors” (The Regents of the University of California, priority 2009, dated 2017).
# Assays:
# [1] = test system: RPMI/8226 multiple myeloma cell line; assay: Percent survival of cells, multiple myeloma versus leukemia line (FIG. 2); type: cell-based; settings: FIG. 2, percent survival
# From the text: Bortezomib (BZM), the first proteasome inhibitor to reach the clinic, is being used to treat patients with multiple myeloma and mantle cell lymphoma, and this is reflective of this agent's differential potency in different tumor cell types.
# [2] = test system: ubiquitinated proteins (proteasome activity) in REH cells; assay: Western blot with anti-ubiquitin antibody in treated REH cells (FIG. 3); type: cell-based, human; settings: increasing concentrations
# From the text: An antibody against ubiquitin to reveal the presence of ubiquitinated proteins, which accumulate (and present as a smear, due to different molecular weights) in response to the inhibition of proteasome activity. Actin was used as a loading control.
# [3] = test system: proteasome; assay: Syringolin A treatment of a human neuroblastoma cell line; type: cell-based; settings: 25 μM
# From the text: They are members of a bioactive natural product family and includes the glidobactins/cepafungins now referred to as the syrbactins. Crystallography established that both syringolin A and B form a covalent adduct with the proteasome via conjugate addition of the N-terminal threonine hydroxyl group to their α,β-unsaturated lactams. Given the known properties of proteasome inhibitors, the action of syringolin A in cancer cells was investigated.
SMILES,cytotoxicity in RPMI/8226 multiple myeloma cells compared with REH acute lymphocytic leukemia cells [1],accumulation of ubiquitinated proteins [2],accumulation of ubiquitinated proteins [3],proteasome activity [3]
"CC(C)C[C@H](NC(=O)[C@H](Cc1ccccc1)NC(=O)c1cnccn1)B(O)O [BZM, Bortezomib]",more cytotoxic to multiple myeloma cells,substantial accumulation of ubiquitinated proteins,–,–
CC(C)[C@H](NC(=O)N[C@H](C(=O)N[C@H]1/C=C/CCNC(=O)/C=C/[C@H](C(C)C)NC1=O)C(C)C)C(=O)O [syringolin A],–,–,time-dependent accumulation of ubiquitinated proteins,dose-dependent decrease in proteasome activity
